Results published in patent publication US7981883B2, “Substituted spiro-compounds and the use thereof for producing medicaments” (Gruenenthal GmbH, priority 2005, dated 2011).

Columns and labels:
VR1 (human) = biological target: T1, VR1 (human) (Homo sapiens, UniProt Q8NER1); assay: Functional FLIPR Ca2+ inflow assay on VR1 (human), CHO K1 cells stably transfected with the VR1 gene; format: cell-based; details: test compound 10 μM; for inhibition at 10 µM / activation at 10 µM: CHO-K1; for inhibition at 10 µM / VR1 (human) (% inhibition compared to 10 μM CP): then 100 nM capsaicin after 5 min, relative to maximum inhibition with 10 μM capsaicin; for inhibition at 10 µM: read-out: VR1 (human) (% inhibition compared to 10 μM CP); for activation at 10 µM / VR1 (human) (% stimulation compared to 10 μM CP): Ca2+ signal relative to 10 μM capsaicin (CP); for activation at 10 µM: read-out: VR1 (human) (% stimulation compared to 10 μM CP)
T1 construct: expressed in transfected cells; host or cells: CHO K1 cells (ECACC)
T1 sequence (Q8NER1 whole entry): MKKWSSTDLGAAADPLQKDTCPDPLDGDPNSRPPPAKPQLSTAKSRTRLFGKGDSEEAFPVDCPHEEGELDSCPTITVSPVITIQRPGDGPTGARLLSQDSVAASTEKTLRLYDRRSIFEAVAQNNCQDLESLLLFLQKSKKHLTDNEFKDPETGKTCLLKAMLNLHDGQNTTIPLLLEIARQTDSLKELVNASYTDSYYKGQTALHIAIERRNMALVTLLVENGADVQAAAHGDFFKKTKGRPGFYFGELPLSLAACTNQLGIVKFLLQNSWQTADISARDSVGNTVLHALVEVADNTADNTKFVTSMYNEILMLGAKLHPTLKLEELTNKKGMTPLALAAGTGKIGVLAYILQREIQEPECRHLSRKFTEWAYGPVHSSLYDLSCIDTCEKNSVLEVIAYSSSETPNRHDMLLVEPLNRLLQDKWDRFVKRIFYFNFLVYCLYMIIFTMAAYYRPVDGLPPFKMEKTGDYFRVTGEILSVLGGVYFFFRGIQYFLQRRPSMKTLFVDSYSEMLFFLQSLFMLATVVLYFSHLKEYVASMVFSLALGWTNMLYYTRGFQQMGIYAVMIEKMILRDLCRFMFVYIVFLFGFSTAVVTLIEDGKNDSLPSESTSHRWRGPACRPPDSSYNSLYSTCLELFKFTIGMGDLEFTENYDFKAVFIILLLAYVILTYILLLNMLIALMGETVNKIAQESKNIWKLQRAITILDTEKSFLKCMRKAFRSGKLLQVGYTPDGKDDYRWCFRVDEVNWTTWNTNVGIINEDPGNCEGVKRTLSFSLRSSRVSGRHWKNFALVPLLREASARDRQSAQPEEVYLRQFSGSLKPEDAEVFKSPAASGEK
Text: II. Functional Testing Carried Out on the Vanilloid Receptor (VR1)
The agonistic or antagonistic effect of the substances to be tested can also be determined on the vanilloid receptor (VR1) using the following assay. According to this assay, the Ca^2+ inflow is quantified through the channel using a Ca^2+-sensitive dye (type Fluo-4, Molecular Probes Europe BV, Leiden, Netherlands) in a fluorescent imaging plate reader (FLIPR, Molecular Devices, Sunnyvale, USA).
Chinese hamster ovary cells (CHO K1 cells, European Collection of Cell Cultures (ECACC) United Kingdom) were stably transfected with the VR1 gene. For functional testing, these cells were plated out on poly-D-lysine-coated black 96 well plates having a clear base (BD Biosciences, Heidelberg, Germany) at a density of 25,000 cells/well. The cells were incubated overnight at 37° C. and 5% CO2 in a culture medium (Ham's F12 nutrient mixture, 10% by volume of FCS (foetal calf serum), 18 μg/ml L-proline). The next day the cells were incubated with Fluo-4 (Fluo-4 2 μM, 0.01% by volume of Pluronic F127, Molecular Probes in HBSS (Hank's buffered saline solution), Gibco Invitrogen GmbH, Karlsruhe, Germany) for 30 minutes at 37° C. Subsequently, the plates were washed three times with HBSS buffer and after further incubation for 15 minutes at room temperature used for Ca^2+ measurement in a FLIPR assay. The Ca^2+-dependent fluorescence was measured before and after the addition of the substances to be tested (λex wavelength=488 nm, λem=540 nm). Quantification was carried out by measuring the highest fluorescence intensity (FC, Fluorescence Counts) over time.
The FLIPR protocol consists of 2 substance additions. First the compounds to be tested (10 μM) were pipetted onto the cells and the Ca^2+ inflow was compared with the control (capsaicin 10 μM) (% activation based on the Ca^2+ signal after the addition of 10 μM capsaicin). After 5 minutes' incubation, 100 nM of capsaicin were administered and the Ca^2+ inflow was also determined.
Desensitising agonists and antagonists led to suppression of the Ca^2+ inflow. The % inhibition was calculated compared to the maximum achievable inhibition with 10 μM of capsaicin.

VR1 (rat) = biological target: T2, VR1 (rat) (Rattus norvegicus, UniProt O35433); assay: Functional FLIPR Ca2+ inflow assay on rat-species vanilloid receptor 1 in rat dorsal root ganglia cells; format: cell-based; details: test compound 10 μM; for inhibition at 10 µM / VR1 (rat) (% inhibition compared to 10 μM CP): then 100 nM capsaicin after 5 min, relative to maximum inhibition with 10 μM capsaicin; for inhibition at 10 µM: read-out: VR1 (rat) (% inhibition compared to 10 μM CP); for activation at 10 µM / VR1 (rat) (% stimulation compared to 10 μM CP): Ca2+ signal relative to 10 μM capsaicin (CP); for activation at 10 µM: read-out: VR1 (rat) (% stimulation compared to 10 μM CP)
T2 construct: from tissue; host or cells: primary cells dissociated from rat dorsal root ganglia
T2 sequence (O35433 whole entry): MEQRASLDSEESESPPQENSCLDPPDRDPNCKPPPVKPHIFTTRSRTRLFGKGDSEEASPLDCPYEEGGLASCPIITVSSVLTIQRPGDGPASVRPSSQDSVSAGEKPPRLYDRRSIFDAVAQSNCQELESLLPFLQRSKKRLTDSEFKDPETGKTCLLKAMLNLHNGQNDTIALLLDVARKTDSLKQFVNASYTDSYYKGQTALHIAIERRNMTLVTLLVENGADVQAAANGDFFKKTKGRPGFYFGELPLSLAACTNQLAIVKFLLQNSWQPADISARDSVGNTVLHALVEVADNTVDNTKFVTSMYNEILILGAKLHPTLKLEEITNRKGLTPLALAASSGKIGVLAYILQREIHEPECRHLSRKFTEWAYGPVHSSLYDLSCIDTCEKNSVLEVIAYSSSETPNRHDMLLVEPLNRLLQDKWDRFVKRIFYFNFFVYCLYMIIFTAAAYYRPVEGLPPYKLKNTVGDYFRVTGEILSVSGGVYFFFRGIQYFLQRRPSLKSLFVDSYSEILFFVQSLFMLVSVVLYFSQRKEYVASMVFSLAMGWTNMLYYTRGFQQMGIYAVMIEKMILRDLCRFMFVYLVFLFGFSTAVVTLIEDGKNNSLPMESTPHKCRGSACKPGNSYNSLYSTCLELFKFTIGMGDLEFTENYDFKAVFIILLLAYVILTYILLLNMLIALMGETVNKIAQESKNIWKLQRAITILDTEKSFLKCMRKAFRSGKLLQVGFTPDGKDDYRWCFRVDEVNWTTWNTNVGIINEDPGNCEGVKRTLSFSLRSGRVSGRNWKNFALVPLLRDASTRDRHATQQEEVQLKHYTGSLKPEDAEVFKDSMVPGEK
Text: I. Functional Testing Carried Out on the Vanilloid Receptor 1 (VR1/TRPV1 Receptor)
The agonistic or antagonistic effect of the substances to be tested can be determined on the rat-species vanilloid receptor 1 (VR1/TRPV1) using the following assay. According to this assay, the Ca^2+ inflow is quantified through the receptor channel using a Ca^2+-sensitive dye (type Fluo-4, Molecular Probes Europe BV, Leiden, Netherlands) in a fluorescent imaging plate reader (FLIPR, Molecular Devices, Sunnyvale, USA).
Complete medium: 50 mL HAMS F12 nutrient mixture (Gibco Invitrogen GmbH, Karlsruhe, Germany) with
10% by volume of FCS (foetal calf serum, Gibco Invitrogen GmbH, Karlsruhe, Germany, […]);
2 mM L-glutamine (Sigma, Munich, Germany);
1% by weight of AA solution (antibiotic/antimyotic solution, PAA, Pasching, Austria) and 25 ng/ml NGF medium (2.5 S, Gibco Invitrogen GmbH, Karlsruhe, Germany)
Cell culture plate: Poly-D-lysine-coated, black 96 well plates having a clear base (96 well black/clear plate, BD Biosciences, Heidelberg, Germany) were additionally coated with laminin (Gibco Invitrogen GmbH, Karlsruhe, Germany), the laminin being diluted with PBS (Ca—Mg-free PBS, Gibco Invitrogen GmbH, Karlsruhe, Germany) to a concentration of 100 μg/mL. Aliquots having a laminin concentration of 100 μg/mL were removed and stored at −20° C. The aliquots were diluted with PBS in a ratio of 1:10 to 10 μg/mL laminin and in each case 50 μL of the solution were pipetted into a recess in the cell culture plate. The cell culture plates were incubated for at least two hours at 37° C., the excess solution was removed by suction-filtration and the recesses were each washed twice with PBS. The coated cell culture plates were stored with excess PBS which was not removed until just before the feeding of the cells.
The vertebral column was removed from decapitated rats and placed immediately into cold HBSS buffer (Hank's buffered saline solution, Gibco Invitrogen GmbH, Karlsruhe, Germany), i.e. buffer located in an ice bath, mixed with 1% by volume (percent by volume) of an AA solution (antibiotic/antimyotic solution, PAA, Pasching, Austria). The vertebral column was cut longitudinally and removed together with fasciae from the vertebral canal. Subsequently, the dorsal root ganglia (DRG) were removed and again stored in cold HBSS buffer mixed with 1% by volume of an AA solution. The DRG, from which all blood remnants and spinal nerves had been removed, were transferred in each case to 500 μL of cold type 2 collagenase (PAA, Pasching, Austria) and incubated for 35 minutes at 37° C. After the addition of 2.5% by volume of trypsin (PAA, Pasching, Austria), incubation was continued for 10 minutes at 37° C. After complete incubation, the enzyme solution was carefully pipetted off and 500 μL of complete medium were added to each of the remaining DRG. The DRG were in each case suspended several times, drawn through cannulae No. 1, No. 12 and No. 16 using a syringe and transferred to a 50 mL Falcon tube which was filled up to 15 mL with complete medium. The contents of each Falcon tube was in each case filtered through a 70 μm Falcon filter element and centrifuged for 10 minutes at 1,200 rpm and room temperature. The resulting pellet was in each case taken up in 250 μL of complete medium and the number of cells determined.
The number of cells in the suspension was set to 3×10^5 per mL and 150 μL of this suspension were in each case introduced into a recess in the cell culture plates coated as described hereinbefore. In the incubator the plates were left for two to three days at 37° C., 5% by volume of CO2 and 95% relative humidity. […]

Compound | inhibition at 10 µM (VR1 (human)) [%] | activation at 10 µM (VR1 (human)) [%] | inhibition at 10 µM (VR1 (rat)) [%] | activation at 10 µM (VR1 (rat)) [%] | VR1 (human) (% inhibition compared to 10 μM CP) (VR1 (human)) [%] | VR1 (human) (% stimulation compared to 10 μM CP) (VR1 (human)) [%] | VR1 (rat) (% inhibition compared to 10 μM CP) (VR1 (rat)) [%] | VR1 (rat) (% stimulation compared to 10 μM CP) (VR1 (rat)) [%]
CC(C)(C)C1CCC2(CC1)CC(C(=O)N1CCc3cc(O)c(O)cc3C1)=NO2 (stereo not drawn) [Example 12, (8-tert-butyl-1-oxa-2-azaspiro[4.5]dec-2-en-3-yl)-(6,7-dihydroxy-3,4-dihydro-1H-isoquinolin-2-yl)methanone] | 79.9 | 101 | 94.3 | 112 |  |  |  | 
CC(C)(C)C1CCC2(CC1)CC(C(=O)NCc1ccc(NS(C)(=O)=O)cc1)=NO2 (stereo not drawn) [Example 2, trans-8-tert-butyl-1-oxa-2-azaspiro[4.5]dec-2-ene-3-carboxylic acid-4-methanesulphonylaminobenzylamide] |  |  |  |  | 58.09 | −0.32 | 100.87 | −15.97
COc1cc2c(cc1OC)CN(C(=O)C1=NO[C@]3(CC[C@@H](C(C)(C)C)CC3)C1)CC2 [Example 19, cis-(8-tert-butyl-1-oxa-2-azaspiro[4.5]dec-2-en-3-yl)-(6,7-dimethoxy-3,4-dihydro-1H-isoquinolin-2-yl)methanone] |  |  |  |  | 22.55 | 13.41 | 95.49 | 70.81
CC(C)(C)c1ccc(NC(=O)C2CCC3(CC2)CC(C(=O)N2CCN(c4ncccc4Cl)CC2)=NO3)cc1 (stereo not drawn) [Example 84, N-(4-tert-butylphenyl)-3-(4-(3-chloropyridin-2-yl)piperazin-1-carbonyl)-1-oxa-2-azaspiro[4.5]dec-2-ene-8-carboxamide] | 31 | 33 | 103 | 61 |  |  |  | 
CC(C)(C)[C@H]1CC[C@@]2(CC1)CC(C(=O)N1CCCN(c3ncccc3Cl)CC1)=NO2 [Example 22, cis-(8-tert-butyl-1-oxa-2-azaspiro[4.5]dec-2-en-3-yl)-[4-(3-chloropyridin-2-yl)-[1,4]diazepan-1-yl]methanone] |  |  |  |  | 0.14 | 0.13 | 16.63 | −0.37
CC(C)(C)[C@H]1CC[C@]2(CC1)CC(C(=O)N1CCN(c3ccc(O)cc3)CC1)=NO2 [Example 10, trans-(8-tert-butyl-1-oxa-2-azaspiro[4.5]dec-2-en-3-yl)-[4-(4-hydroxyphenyl)piperazin-1-yl]methanone] |  |  |  |  | 17.54 | 2.84 | 22.95 | 8.77

The remaining lines, values ahead:

inhibition at 10 µM (VR1 (human)) [%] | activation at 10 µM (VR1 (human)) [%] | inhibition at 10 µM (VR1 (rat)) [%] | activation at 10 µM (VR1 (rat)) [%] | VR1 (human) (% inhibition compared to 10 μM CP) (VR1 (human)) [%] | VR1 (human) (% stimulation compared to 10 μM CP) (VR1 (human)) [%] | VR1 (rat) (% inhibition compared to 10 μM CP) (VR1 (rat)) [%] | VR1 (rat) (% stimulation compared to 10 μM CP) (VR1 (rat)) [%] | Compound
 |  |  |  | 54.21 | 23.79 | 69.46 | 55.21 | CC(C)(C)C1CCC2(CC1)CC(C(=O)NCc1ccncc1)=NO2 (stereo not drawn) [Example 23, trans-8-tert-butyl-1-oxa-2-azaspiro[4.5]dec-2-ene-3-carboxylic acid (pyridin-4-ylmethyl)amide]
23.6 | 20.7 | 71.3 | 44.7 |  |  |  |  | CC(C)(C)C1CCC2(CC1)CC(C(=O)NCc1ccc(N)cc1)=NO2 (stereo not drawn) [Example 1, 8-tert-butyl-1-oxa-2-azaspiro[4.5]dec-2-ene-3-carboxylic acid-4-aminobenzylamide]
 |  |  |  | 83.01 | 91.72 | 97.79 | 87.96 | CC(C)(C)[C@H]1CC[C@@]2(CC1)CC(C(=O)NCc1ccncc1)=NO2 [Example 24, cis-8-tert-butyl-1-oxa-2-azaspiro[4.5]dec-2-ene-3-carboxylic acid (pyridin-4-ylmethyl)amide]
